According to US20210138039A1, “PAIN RESPONSE MEDIATOR COMPOSITIONS AND METHODS FOR MAKING AND USING SAME” (Q-STATE BIOSCIENCES, INC., priority 2017, published 2021):
No end group written: not given here.

Columns and labels:
rats = details: injected in rats; cited from earlier work
[1] = tested on: E18 rat hippocampal neurons; assay: High-throughput fluorescent voltage recording, 96-well plate (FIGS. 30-34); type: cell-based; details: 1 μM; neurons cultured for 14 days; blue light stimulus
Text: FIGS. 30-34 show high-throughput validation for screening. E18 rat hippocampal neurons cultured for 14 days.
The blue light stimulus is shown below.
FIG. 31 is a raster plot showing spikes from columns of wells.
Vehicle wells (even columns, green) and ML213 wells (odd columns, red) are easily distinguished. Even numbered columns are all green; odd numbered columns are all read.

[2] = tested on: iPS cell-derived sensory neurons; type: cell-based, human
mouse DRG neurons = type: cell-based
humans = details: injection in humans; cited from earlier work
Cultured DRG neurons = assay: Firing phenotypes of cultured DRG neurons; type: cell-based, rodent
animal models = details: subcutaneous injection; cited from earlier work

## TNF-a
rats
  pain on injection: cause pain

## IL-6: an inflammatory cytokine found to be elevated around tumors
rats
  pain on injection: causes local pain

## Cc1cc(C)c(NC(=O)C2CC3CCC2C3)c(C)c1 (stereo not shown) [ML213]
[1]
  firing rate: dramatically reduces firing rate in all wells tested

## NC1=N[C@H](O)[C@H]2[C@H]3O[C@]4(O)O[C@@H]([C@@H](O)[C@@]2(N1)[C@@H]4O)[C@]3(O)CO [TTX, tetrodotoxin]
[2]
  spiking in response to the blue stimulus: almost all spiking is blocked
Mouse DRG neurons
  after-hyperpolarization depth: decreases
  effect on the pain mediator composition-induced firing: blocks the effect of the pain mediator composition
  spike width: increases

## Nc1ncnc2c1ncn2[C@@H]1O[C@H](COP(=O)(O)OP(=O)(O)OP(=O)(O)O)[C@@H](O)[C@H]1O [ATP, adenosine triphosphate]
humans
  pain sensitivity on injection: increased pain sensitivity

## COc1cc(CNC(=O)CCCC/C=C/C(C)C)ccc1O [capsaicin]
Cultured DRG neurons
  firing phenotype in response to capsaicin: acute response

## endothelin 1 (CSCSSLMDKECVYFCHLDIIW; ends and bridges not checked; cysteine pairing not given here; UniProt P05305 53-73, looked up) [ET-1]
Animal models
  sensitization (paw withdrawal threshold): local sensitization
